Test results from patent publication US20240252668A1, “ANTIBODY DRUG CONJUGATES AND METHODS FOR MAKING THEREOF” (Novartis AG, priority 2021, published 2024).
Like-named read-outs stand apart in the source and are kept apart here. Starred links: 1 amine or outer side, 2 acyl side, 3 side chain; linkers in the order of their positions; H or OH if unused. Positions of bridges follow the written chain, without caps; N, C: chain ends. Non-standard residues stand in square brackets, D forms with d. Residues, ends and D or L forms follow the SMILES beside them. *: point of attachment. Leu(3R-OH,Nα-propionyl) = CCC(=O)N[C@H](C(=O)*)[C@H](O)C(C)C; X1 = CC(C)[C@@H](O[*:3])[C@H](N[*:1])C(=O)[*:2]; NMeT = CN[C@H](C(=O)O)[C@@H](C)O; dPhLac = O=C(O)[C@H](O)Cc1ccccc1; NMeA = CN[C@@H](C)C(=O)O; NMeDha = C=C(NC)C(=O)O

Key:
[1] = test system: A375 skin melanoma cell line (homozygous BRAF V600E); assay: Cell proliferation assay (resazurin cell viability), A375 cell line; assay type: cell-based; conditions: Homo sapiens, A-375
Summary of the method: (§1)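 Cells seeded the night before, then treated 96 h at 37 °C in RPMI/10% FCS (A375 in DMEM/10% FCS); compounds 260 nM to 0.036 nM in ⅓ dilution steps, one compound 10000 nM to 1.52 nM. Viability read by resazurin addition after 96 h.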

[2] = test system: SK-MEL-30 skin melanoma cell line (heterozygous NRAS Q61K); assay: Cell proliferation assay (resazurin cell viability), SK-MEL-30 cell line; assay type: cell-based; conditions: Homo sapiens
Summary of the method: as §1

[3] = test system: MP41 uveal melanoma cell line (heterozygous GNA11 Q209L); assay: Cell proliferation assay (resazurin cell viability), MP41 cell line; assay type: cell-based
Summary of the method: as §1

[4] = test system: 92.1 uveal melanoma cell line (heterozygous GNAQ Q209L); assay: Cell proliferation assay (resazurin cell viability), 92.1 cell line; assay type: cell-based
Summary of the method: as §1

[5] = Plasma incubation of compound (A1), mouse (CD-1) plasma; assay type: in vitro ADME
Experimental: (§2) Plasma incubations and sample preparation: Compound (A1) was spiked at 5.00 μg/mL in PBS and pooled mixed gender mouse (CD-1), cynomolgus monkey and human plasma. Samples were incubated on a Thermomixer (Eppendorf) at 37° C. while shaking at 650 rpm. Aliquots of 50 μL (n=3) were drawn from each incubation tube following 0, 0.5, 1, 2, 4, 8 and 24 h of incubation. 50 μL of sample was quenched with 200 μL of acetonitrile, containing both generic internal standards, glybenclamide and warfarin, at 62.5 ng/mL. Samples were briefly vortexed and centrifuged for 20 min at 4000 rpm and 4° C. 200 μL of the supernatant was transferred into a clean 800 μL 96-well sample collection plate.
Quantification by LC-MS/MS: LC-MS/MS analysis was conducted with a Shimadzu Nexera UPLC coupled to AB Sciex QTRAP 6500 using the SRM acquisition mode (3 μL injected). Samples were analyzed using a ACE 3° C.18-PFP (3 μM, 2.1×50 mm column) at a column temperature of 65° C. […] Quantification of compound (A1) and 5 was performed by MS-MRM (electrospray in positive mode, ion spray voltage: 5000 V, source temperature: 500° C., curtain gas: 25 psig, nebulizer gas: 60 psig, turbo ion spray gas: 40 psig, mass range: low, resolution Q1/Q3: unit, collision gas: medium, dwell time: 12 msec). […] Peak integration and quantification was conducted with the AB Sciex Analyst software (v.1.7) using the Analyst Classic algorithm.

[6] = Plasma incubation of compound (A1), human plasma, LC-MS/MS quantification; assay type: in vitro ADME; conditions: human plasma, 37° C.
Experimental: as §2
Quantification by LC-MS/MS: LC-MS/MS analysis was conducted with a Shimadzu Nexera UPLC coupled to AB Sciex QTRAP 6500 using the SRM acquisition mode (3 μL injected). Samples were analyzed using a ACE 3° C.18-PFP (3 μM, 2.1×50 mm column) at a column temperature of 65° C. The starting conditions were 97% H20 containing 0.1% formic acid and 3% CH3CN containing 0.1% formic acid. Quantification of compound (A1) and 5 was performed by MS-MRM (electrospray in positive mode, ion spray voltage: 5000 V, source temperature: 500° C., curtain gas: 25 psig, nebulizer gas: 60 psig, turbo ion spray gas: 40 psig, mass range: low, resolution Q1/Q3: unit, collision gas: medium, dwell time: 12 msec). Separate calibration curves were established with calibration standards of compounds (A1) and 5 at concentrations of 10.0, 5.00, 2.50, 1.00, 0.500, 0.100, 0.050 and 0.010 μg/mL respectively. Peak integration and quantification was conducted with the AB Sciex Analyst software (v.1.7) using the Analyst Classic algorithm. […]

**Q.** For `C=C1C(=O)N[C@@H](C)C(=O)N(C)[C@@H](C)C(=O)N[C@@H]([C@H](OC(=O)[C@@H](NC(=O)CC)[C@H](O)C(C)C)C(C)C)C(=O)N(C)[C@@H]([C@@H](C)OC)C(=O)O[C@H](C(C)C)[C@H](NC(C)=O)C(=O)O[C@H](Cc2ccccc2)C(=O)N1C` [Compound (A1), FR900359] (Ac-[X1][dPhLac][NMeDha]A[NMeA][X1](Leu(3R-OH,Nα-propionyl))[NMeT](Me); ester 1-C), which GI50 ([1]; A375 (GNAQ/11 wild type), 96 hours of treatment, read-out: GI50 by cell line, A375) is on record?
**A.** Its GI50 is greater than 260 nM.

**Q.** What about the GI50 ([1]; A375 cell line, average of Rep. 1 and 2, read-out: GI50 A375 Average) of the same compound?
**A.** Its GI50 is greater than 260 nM.

**Q.** What about the GI50 ([1]; A375 cell line, replicate 1, read-out: GI50 A375 Rep. 1) of the same compound?
**A.** Its GI50 is greater than 260 nM.

**Q.** What about the GI50 ([1]; A375 cell line, replicate 2, read-out: GI50 A375 Rep. 2) of the same compound?
**A.** The GI50 was greater than 260 nM.

**Q.** What about the GI50 ([2]; SK-MEL-30 (GNAQ/11 wild type), 96 hours of treatment, read-out: GI50 by cell line, SK-MEL-30) of the same compound?
**A.** Its GI50 is greater than 260 nM.

**Q.** And the GI50 ([2]; SK-MEL-30 cell line, average of Rep. 1 and 2, read-out: GI50 SK-MEL-30 Average)?
**A.** The GI50 was greater than 260 nM.

**Q.** What about the GI50 ([2]; SK-MEL-30 cell line, replicate 1, read-out: GI50 SK-MEL-30 Rep. 1) of the same compound?
**A.** The GI50 was greater than 260 nM.

**Q.** And the GI50 ([2]; SK-MEL-30 cell line, replicate 2, read-out: GI50 SK-MEL-30 Rep. 2)?
**A.** Its GI50 is greater than 260 nM.

**Q.** What about the GI50 ([3]; MP41 (GNA11 Q209L), 96 hours of treatment, read-out: GI50 by cell line, MP41) of the same compound?
**A.** Its GI50 is 0.2 nM.

**Q.** And the GI50 ([3]; MP41 cell line, average of Rep. 1 and 2, read-out: GI50 MP41 Average)?
**A.** Its GI50 is 0.2 nM.

**Q.** What about the GI50 ([3]; MP41 cell line, replicate 1, read-out: GI50 MP41 Rep. 1) of the same compound?
**A.** Its GI50 is 0.22 nM.

**Q.** What about the GI50 ([3]; MP41 cell line, replicate 2, read-out: GI50 MP41 Rep. 2) of the same compound?
**A.** The GI50 was 0.27 nM.

**Q.** And the GI50 ([4]; 92.1 (GNAQ Q209L), 96 hours of treatment, read-out: GI50 by cell line, 92.1)?
**A.** The GI50 was 0.6 nM.

**Q.** What about the GI50 ([4]; 92.1 cell line, average of Rep. 1 and 2, read-out: GI50 92.1 Average) of the same compound?
**A.** The GI50 was 0.6 nM.

**Q.** And the GI50 ([4]; 92.1 cell line, replicate 1, read-out: GI50 92.1 Rep. 1)?
**A.** The GI50 was 0.46 nM.

**Q.** And the GI50 ([4]; 92.1 cell line, replicate 2, read-out: GI50 92.1 Rep. 2)?
**A.** Its GI50 is 0.69 nM.

**Q.** And the “plasma stability / metabolite formation compared with human plasma” value [5]?
**A.** The value was “Very similar results”.

**Q.** And the “Concentration of (A1), Aliquot 1” value ([6]; 0 h)?
**A.** The value was 4620 ng/mL.

**Q.** What about the “Concentration of (A1), Aliquot 2” value ([6]; 0 h) of the same compound?
**A.** Its value is 4350 ng/mL.

**Q.** And the “Concentration of (A1), Aliquot 3” value ([6]; 0 h)?
**A.** Its value is 4750 ng/mL.

**Q.** And the “Mean concentration of (A1)” value ([6]; 0 h)?
**A.** Its value is 4570 ng/mL.

**Q.** What about the “Concentration of (A1), Aliquot 1” value ([6]; 0.5 h) of the same compound?
**A.** The value was 5150 ng/mL.

**Q.** What about the “Concentration of (A1), Aliquot 2” value ([6]; 0.5 h) of the same compound?
**A.** The value was 5100 ng/mL.

**Q.** What about the “Concentration of (A1), Aliquot 3” value ([6]; 0.5 h) of the same compound?
**A.** The value was 5100 ng/mL.

**Q.** And the “Mean concentration of (A1)” value ([6]; 0.5 h)?
**A.** The value was 5120 ng/mL.

**Q.** What about the “Concentration of (A1), Aliquot 1” value ([6]; 1 h) of the same compound?
**A.** Its value is 4980 ng/mL.

**Q.** And the “Concentration of (A1), Aliquot 2” value ([6]; 1 h)?
**A.** Its value is 4580 ng/mL.

**Q.** What about the “Concentration of (A1), Aliquot 3” value ([6]; 1 h) of the same compound?
**A.** Its value is 5020 ng/mL.

**Q.** What about the “Mean concentration of (A1)” value ([6]; 1 h) of the same compound?
**A.** The value was 4860 ng/mL.

**Q.** What about the “Concentration of (A1), Aliquot 1” value ([6]; 2 h) of the same compound?
**A.** The value was 4790 ng/mL.

**Q.** What about the “Concentration of (A1), Aliquot 2” value ([6]; 2 h) of the same compound?
**A.** The value was 5130 ng/mL.

**Q.** And the “Concentration of (A1), Aliquot 3” value ([6]; 2 h)?
**A.** Its value is 4680 ng/mL.

**Q.** What about the “Mean concentration of (A1)” value ([6]; 2 h) of the same compound?
**A.** Its value is 4870 ng/mL.

**Q.** And the “Concentration of (A1), Aliquot 1” value ([6]; 4 h)?
**A.** Its value is 4140 ng/mL.

**Q.** What about the “Concentration of (A1), Aliquot 2” value ([6]; 4 h) of the same compound?
**A.** Its value is 4350 ng/mL.

**Q.** What about the “Concentration of (A1), Aliquot 3” value ([6]; 4 h) of the same compound?
**A.** The value was 4350 ng/mL.

**Q.** And the “Mean concentration of (A1)” value ([6]; 4 h)?
**A.** The value was 4280 ng/mL.

**Q.** And the “Concentration of (A1), Aliquot 1” value ([6]; 8 h)?
**A.** Its value is 3260 ng/mL.

**Q.** What about the “Concentration of (A1), Aliquot 2” value ([6]; 8 h) of the same compound?
**A.** Its value is 3660 ng/mL.

**Q.** What about the “Concentration of (A1), Aliquot 3” value ([6]; 8 h) of the same compound?
**A.** The value was 3600 ng/mL.

**Q.** And the “Mean concentration of (A1)” value ([6]; 8 h)?
**A.** The value was 3510 ng/mL.

**Q.** And the “Concentration of (A1), Aliquot 1” value ([6]; 24 h)?
**A.** The value was 1350 ng/mL.

**Q.** And the “Concentration of (A1), Aliquot 2” value ([6]; 24 h)?
**A.** Its value is 1430 ng/mL.

**Q.** What about the “Concentration of (A1), Aliquot 3” value ([6]; 24 h) of the same compound?
**A.** Its value is 1290 ng/mL.

**Q.** What about the “Mean concentration of (A1)” value ([6]; 24 h) of the same compound?
**A.** The value was 1360 ng/mL.
